Experimental data as given in US9303032B2, “2-(pyridin-2YL)-1, 7-diaza-spiro [4.4] nonane-6-one compound as voltage-gated sodium channels modulator” (CONVERGENCE PHARMACEUTICALS LIMITED, priority 2011, dated 2016).
Structures can show the parent of a compound that is named as a salt.

Biological target: T1, hNaV1.7 (Homo sapiens, UniProt Q15858)
T1 construct: expressed in transfected cells; host or cells: HEK293
Experiment: QPatch NaV1.7 assay
Assay type: cell-based
Details: HEK293-hNaV1.7 cells; holding potential −90 mV, most channels in closed state; read-out: QP Nav1.7 −90 mV pIC50 (converted)
Procedure: The compounds of the invention were tested in a QPatch NaV1.7 assay.
HEK293-hNaV1.7 cells were grown in DMEM-F12+10% FBS culture media at 37° C. At a confluency of 50-70% cells were dissociated from culture flasks & triturated to ensure unicellular cell suspension; cell density was measured & adjusted to 2-3×10^6 cells/ml. Recordings were obtained using QPatch16×. The external solution was (in mM): NaCl, 128; KCl, 5; MgCl2, 2; CaCl2, 2; Glucose, 30; HEPES, 15; pH 7.3, 305-315 mOsm. Following seal formation and whole-cell access using internal solution (containing in mM: CsF, 135; EGTA/CsOH, ⅕; HEPES 10; NaCl, 10; pH 7.3, 310-320 mOsM), voltage pulse protocols were applied. Initially a steady state inactivation voltage protocol was used to determine the half-maximal voltage for steady state inactivation (V1/2 SSI). Two holding voltages were used to determine test drug inhibition: −90 mV, where most of the channels are in a closed state; and V1/2 SSI, where half of the channels are inactivated. Currents were elicited every 10 seconds by stepping to a membrane potential of 0 mV for 20 ms. Four-point cumulative concentration responses were derived by determining the peak current amplitude at each concentration of test drug over 120 second application. Curves were fitted with the Hill equation yielding pIC50 values at −90 mV and V1/2 SSI holding potentials.

T1 sequence (Q15858 whole entry): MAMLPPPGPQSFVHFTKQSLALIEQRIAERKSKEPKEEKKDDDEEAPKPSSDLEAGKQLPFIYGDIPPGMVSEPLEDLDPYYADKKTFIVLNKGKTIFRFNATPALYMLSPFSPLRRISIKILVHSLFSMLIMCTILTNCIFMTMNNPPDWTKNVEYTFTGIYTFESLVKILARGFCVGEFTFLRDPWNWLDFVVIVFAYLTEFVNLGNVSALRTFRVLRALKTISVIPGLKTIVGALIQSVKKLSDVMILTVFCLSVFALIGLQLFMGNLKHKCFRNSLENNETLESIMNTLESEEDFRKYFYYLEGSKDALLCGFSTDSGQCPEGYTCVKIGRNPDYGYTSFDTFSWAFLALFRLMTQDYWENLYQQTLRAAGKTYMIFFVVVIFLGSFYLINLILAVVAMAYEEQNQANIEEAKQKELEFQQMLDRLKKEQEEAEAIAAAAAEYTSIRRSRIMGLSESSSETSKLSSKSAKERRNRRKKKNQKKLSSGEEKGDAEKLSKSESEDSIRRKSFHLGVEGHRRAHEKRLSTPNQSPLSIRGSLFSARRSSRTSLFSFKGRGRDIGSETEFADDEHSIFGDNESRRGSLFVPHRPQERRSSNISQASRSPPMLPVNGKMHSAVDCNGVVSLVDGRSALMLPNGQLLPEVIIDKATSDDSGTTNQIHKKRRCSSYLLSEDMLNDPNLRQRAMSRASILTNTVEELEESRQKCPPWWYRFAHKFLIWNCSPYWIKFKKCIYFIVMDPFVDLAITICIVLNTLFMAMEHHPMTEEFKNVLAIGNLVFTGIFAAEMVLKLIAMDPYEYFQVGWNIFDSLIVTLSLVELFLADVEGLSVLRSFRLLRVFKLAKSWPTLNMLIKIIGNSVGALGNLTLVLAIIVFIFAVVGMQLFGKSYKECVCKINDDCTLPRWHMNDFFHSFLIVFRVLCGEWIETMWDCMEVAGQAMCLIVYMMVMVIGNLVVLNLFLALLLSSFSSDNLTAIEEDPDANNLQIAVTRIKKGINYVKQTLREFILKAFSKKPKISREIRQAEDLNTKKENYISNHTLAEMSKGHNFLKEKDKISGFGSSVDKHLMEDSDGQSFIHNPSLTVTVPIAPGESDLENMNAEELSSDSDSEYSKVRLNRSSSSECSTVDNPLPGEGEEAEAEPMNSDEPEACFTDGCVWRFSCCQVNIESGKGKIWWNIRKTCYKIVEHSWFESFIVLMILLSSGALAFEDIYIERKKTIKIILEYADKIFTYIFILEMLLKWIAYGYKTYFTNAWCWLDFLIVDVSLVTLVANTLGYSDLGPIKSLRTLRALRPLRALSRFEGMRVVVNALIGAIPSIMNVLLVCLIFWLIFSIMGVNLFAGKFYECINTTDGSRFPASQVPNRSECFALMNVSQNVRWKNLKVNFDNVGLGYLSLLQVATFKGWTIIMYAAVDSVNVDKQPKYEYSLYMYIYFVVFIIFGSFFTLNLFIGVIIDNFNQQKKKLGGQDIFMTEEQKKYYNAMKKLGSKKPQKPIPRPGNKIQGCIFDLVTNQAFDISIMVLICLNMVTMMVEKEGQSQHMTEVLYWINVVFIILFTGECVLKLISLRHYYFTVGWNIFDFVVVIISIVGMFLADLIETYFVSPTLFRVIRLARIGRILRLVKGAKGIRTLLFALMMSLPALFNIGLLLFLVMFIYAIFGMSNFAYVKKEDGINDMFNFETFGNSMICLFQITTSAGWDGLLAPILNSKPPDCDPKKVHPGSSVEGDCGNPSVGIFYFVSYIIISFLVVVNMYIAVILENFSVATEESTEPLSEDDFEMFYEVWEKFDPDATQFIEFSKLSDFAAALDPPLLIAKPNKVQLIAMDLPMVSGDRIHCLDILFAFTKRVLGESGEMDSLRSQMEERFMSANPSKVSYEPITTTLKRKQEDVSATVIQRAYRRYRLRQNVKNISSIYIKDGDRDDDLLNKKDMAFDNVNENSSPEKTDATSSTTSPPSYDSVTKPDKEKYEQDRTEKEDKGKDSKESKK

Compound CN1CC[C@@]2(CC[C@H](c3cc(-c4cccc(OC(F)(F)F)c4)ccn3)N2)C1=O [Example 1, (2R,5S)-7-Methyl-2-[4-[3-(trifluoromethoxy)phenyl]-2-pyridyl]-1,7-diazaspiro[4.4]nonan-6-one hydrochloride] has an IC50 of 50.1 µM.
